What all share (assay): Immunofluorescent staining: centrosomes and chromosome segregation
For one assay, the system named is MCF-7. Type of assay: cell-based, human. The note with it: 1 μM, 24 hours. As for the experimental part:
(§1) Cells on coverslips placed on the bottom of 35 mm tissue culture plates or 6-well clustered dishes were treated for 12-24 hours with the CTR compounds to be tested. Subsequently, the cells were fixed with 100% methanol for 15 minutes and washed with 1×PBS three times. Cells were then “blocked” with 3% BSA or 1% (v/v) FBS plus 1×PBST (1×PBS buffer containing 0.1% (v/v) Triton X-100 or 0.2% Tween 20), and incubated overnight at 4° C. with primary antibodies, with gentle agitation. Unbound primary antibodies were washed off with PBST, and a secondary antibody was added for 1 hour in the dark. Secondary antibodies were conjugated to Alexa 488 or 568. DNA was counterstained with DRAQ5 or DAPI. Subsequently, coverslips were washed three times with 1×PBST for 10 minutes each, followed by mounting them onto slides with 90% glycerol in 1×PBS. Each slide was visualized with a Carl Zeiss 510 Meta laser scanning microscope or an Axioscope. Image analysis was done with an LSM image examiner equipped with the microscopes (Carl Zeiss, Toronto, ON, Canada).
Asynchronously growing cells were treated with 1 μM CTR-20 for 24 hours, followed by examining cells arrested in mitosis. The percentage of mitotic cells was calculated based on the examination of at least 250-400 cells. […]

A further assay has as its system HEK293T. Format: cell-based. The note with it: 3 μM. As to the method: as §1
(§2) The cancer-specific increase of mitotic cells in response to CTR-17 was correlated with the accumulation of cells with monopolar centrosomes and abnormal chromosome alignment/segregation (FIG. 11, Table 5). Cells were either sham-treated or treated with 3.0 μM CTR-17 for 12 hours or 24 hours, followed by analyses of cell cycle progression, centrosome abnormalities, and chromosome alignment/segregation. […] The mitotic index was determined by fluorescence microscopic analysis of at least 200 cells for each cell type, and data was expressed as percentage mean±S.E.M. of at least two independent experiments.

The subject of another assay is MDA-MB-468. Type of assay: cell-based, human. The note with it: 3 μM. As for the experimental part: as §1, §2

The text below walks through data of US20180344725A1, “QUINOLONE CHALCONE COMPOUNDS AND USES THEREOF” (priority 2015, published 2018).

Take `COc1ccc2[nH]c(=O)c(/C=C/C(=O)c3ccccc3OC)cc2c1` [CTR-20, (E)-6-Methoxy-3-(3-(2-methoxyphenyl)-3-oxoprop-1-enyl) quinolin-2(1H)-one]: in the assay with MCF-7, the “ACA/S (%) (abnormal chromosome alignment and segregation)” value is 29.01 ± 2.50%; the “Monopolar (%)” value stood at 62.41 ± 2.99%.

Regarding `COc1ccccc1C(=O)/C=C/c1cc2ccccc2[nH]c1=O` [CTR-17, (E)-3-(3-(2-Methoxyphenyl)-3-oxoprop-1-enyl)quinolin-2(1H)-one], the “ACS (abnormal chromosome segregation)” value in the assay with HEK293T (12 h post-treatment) is listed as 48.2 ± 10.1% of total mitotic cells; in the assay on HEK293T (24 h post-treatment), 0.1 ± 0.0% of total mitotic cells; in the assay on MDA-MB-468 (12 h post-treatment), 44.7 ± 8.9% of total mitotic cells; with MDA-MB-468 (24 h post-treatment) it was 24.0 ± 5.9% of total mitotic cells. Further, the Monopolar centrosome was 50.5 ± 10.1% of total mitotic cells with HEK293T (12 h post-treatment), 93.2 ± 3.4% of total mitotic cells with HEK293T (24 h post-treatment), 55.3 ± 8.9% of total mitotic cells with MDA-MB-468 (12 h post-treatment) and 76.0 ± 5.9% of total mitotic cells in the assay with MDA-MB-468 (24 h post-treatment).
